Experimental data from PMC10254843, “Discovery of New 2-Phenylamino-3-acyl-1,4-naphthoquinones as Inhibitors of Cancer Cells Proliferation: Searching for Intra-Cellular Targets Playing a Role in Cancer Cells Survival” (Molecules, 2023).

How the values were obtained:
[1] = test system: DU-145 (prostate cancer cells); assay: MTT cell survival assay, DU-145 prostate cancer cells; format: cell-based; details: Homo sapiens, MTT test, cells incubated at 37 °C for 48 h (Table 1 footnote), mean ± SEM, n = 3
Description: (§1) Human cancer cell lines from bladder (T24), prostate (DU–145), breast (MCF–7) and non-tumor HEK-293 cells were obtained from the American Type Culture Collection (ATCC, Manassas, VA, USA). The cultures were maintained at a density of 1–2 × 10^5 cells/mL and the medium was changed at 48- and 72-h intervals. They were cultured in high-glucose Dulbecco’s modified Eagle medium (Gibco, Grand Island, NY, USA) supplemented with 10% fetal calf serum, penicillin (100 U/mL) and streptomycin (100 μg/mL). All cultures were kept at 37 °C in 95% air/5% CO2 at 100% humidity. Phosphate-buffered saline (PBS) was purchased from Gibco. Cells were incubated at the indicated times at 37 °C with or without compounds 1–14 at various concentrations.
(§2) The cytotoxicity of the compounds 1–14 was assessed by following the reduction of MTT (3-(4,5-Dimethylthiazol-2-yl)-2,5-diphenyltetrazolium bromide) to formazan blue. […] Doxorubicin was used as a standard chemotherapeutic agent (positive control). Cells were washed twice with warm PBS and further incubated with MTT (0.5 mg/mL) for 2 h at 37 °C. Blue formazan crystals were solubilized by adding 100 µL DMSO/well, and the optical density of colored solutions was subsequently read at 550 nm in a microplate reader Tecan infinite M200 Pro (Männedorf, Switzerland). The compounds 1–14 were dissolved in DMSO (stock solution at 100 mM) and further diluted to be evaluated at the following concentrations: 0 μM, 1 μM, 10 μM, 20 μM, 40 μM, 60 μM, 80 μM and 100 μM. Results are expressed as % of MTT reduction compared to untreated control conditions. The IC50 values were calculated using the GraphPad Prism 8.0.2 software (San Diego, CA, USA).

[2] = test system: MCF-7 (mammary cancer cells); assay: MTT cell survival assay, MCF-7 mammary cancer cells; format: cell-based; details: Homo sapiens, MCF7; MTT test; cells incubated at 37 °C for 48 h (Table 1 footnote); mean ± SEM, n = 3
Description: as §1, §2

[3] = test system: T24 (Urinary bladder cancer cells); assay: MTT cell survival assay, T24 urinary bladder cancer cells; format: cell-based; details: Homo sapiens; MTT test; cells incubated at 37 °C for 48 h (Table 1 footnote); mean ± SEM, n = 3
Description: as §1, §2

[4] = test system: non-tumorigenic HEK-293 (embryonic kidney cells); assay: MTT cell survival assay, non-tumorigenic HEK-293 cells; format: cell-based; details: Homo sapiens, HEK293; MTT test; cells incubated at 37 °C for 48 h (Table 1 footnote); mean ± SEM, n = 3
Description: as §1, §2

[5] = test system: HEK-293 cells/tumour cells; assay: Mean selective index, HEK-293 vs tumour cells; format: cell-based, human; details: MSI = IC50 values HEK-293 cells/IC50 values tumour cells
Description: The cytotoxicity of the compounds 1–14 was assessed by following the reduction of MTT (3-(4,5-Dimethylthiazol-2-yl)-2,5-diphenyltetrazolium bromide) to formazan blue. Cells were seeded into 96-well plates at a density of 10,000 cells/well for 24 h and then they were further incubated for 24 h with or without the quinones. Doxorubicin was used as a standard chemotherapeutic agent (positive control). Cells were washed twice with warm PBS and further incubated with MTT (0.5 mg/mL) for 2 h at 37 °C. Blue formazan crystals were solubilized by adding 100 µL DMSO/well, and the optical density of colored solutions was subsequently read at 550 nm in a microplate reader Tecan infinite M200 Pro (Männedorf, Switzerland). The compounds 1–14 were dissolved in DMSO (stock solution at 100 mM) and further diluted to be evaluated at the following concentrations: 0 μM, 1 μM, 10 μM, 20 μM, 40 μM, 60 μM, 80 μM and 100 μM. Results are expressed as % of MTT reduction compared to untreated control conditions. The IC50 values were calculated using the GraphPad Prism 8.0.2 software (San Diego, CA, USA).

[6] = Half-wave potentials by cyclic voltammetry; format: physicochemical; details: for −E^I½ (mV): acetonitrile, platinum electrode, room temperature, negative of the potential; for half-wave potential: signed value
Description: Calculation of lipophilicity (ClogP) and molar refractivity (CMR) was assessed by using the ChemBioDraw Ultra 11.0 software and the obtained values are shown in Table 3. Redox potentials of 2-phenylamino-3-acyl-1,4-naphtoquinones 1–14 were measured by cyclic voltammetry at room temperature in acetonitrile as solvent using a platinum electrode and 0.1M tetraethylammonium tetrafluoroborate as the supporting electrolyte.

CDC25A = assay: RT-qPCR mRNA level of CDC25A in DU-145 cells; format: cell-based, human; details: DU145 cells, 24 h; compound 4 at 1 µM, compound 11 at 6 µM; normalized to B2M, 2^−∆∆Ct vs vehicle (1.00); mean ± SEM
Description: (§3) The […] cells were cultured as previously mentioned. […] Afterwards, they were washed with phosphate-buffered saline. The cellular lysate was prepared with E.Z.N.A.®RNA-Lock Reagent (Omega Bio-tek, Norcross, GA, USA) to preserve and immediately stabilize the total RNA for the subsequent gene expression assays. The total RNA isolated from the cells using the E.Z.N.A.®HP Total RNA Isolation Kit (Omega Bio-tek) was reverse-transcribed to cDNA using the AffinityScript QPCR cDNA Synthesis Kit (Agilent Technologies, Santa Clara, CA, USA) and 1000 ng of the RNA sample.
(§4) The cDNA synthesized was employed for qPCR using Brilliant III Ultra-Fast SYBR®Green QPCR Master Mix (Agilent Technologies) in an Mx3000P qPCR System (Agilent Technologies), employing a 96-well plate with 20 μL of PCR reaction per well and 10 pmol each of forward and reverse gene-specific primers. Nine genes were analyzed: B2M, Bcl2, CDC25A, CCN2, GSR, HDAC4, mTOR, TNF, TP53 and their quantitative real-time (qPCR) primer sequences are reported in Table S1 (supplementary material). The relative gene expressions were determined using Beta-2-microglobulin (B2M) as housekeeping, and the delta-delta Ct method (2^−∆∆Ct method) with regard to the vehicle-treated group (i.e., the reference group). Five biological replicates were used from each group (treated and reference group). […]

CCN2 = assay: RT-qPCR mRNA level of CCN2 in DU-145 cells; format: cell-based, human; details: DU145 cells, 24 h; compound 4 at 1 µM, compound 11 at 6 µM; normalized to B2M, 2^−∆∆Ct vs vehicle (1.00); mean ± SEM
Description: as §3, §4

GSR = assay: RT-qPCR mRNA level of GSR in DU-145 cells; format: cell-based, human; details: DU145 cells, 24 h; compound 4 at 1 µM, compound 11 at 6 µM; normalized to B2M, 2^−∆∆Ct vs vehicle (1.00); mean ± SEM
Description: as §3, §4

HDAC4 = assay: RT-qPCR mRNA level of HDAC4 in DU-145 cells; format: cell-based, human; details: DU145 cells, 24 h; compound 4 at 1 µM, compound 11 at 6 µM; normalized to B2M, 2^−∆∆Ct vs vehicle (1.00); mean ± SEM
Description: as §3, §4

TNF = assay: RT-qPCR mRNA level of TNF in DU-145 cells; format: cell-based, human; details: DU145 cells, 24 h; compound 4 at 1 µM, compound 11 at 6 µM; normalized to B2M, 2^−∆∆Ct vs vehicle (1.00); mean ± SEM
TP53 = assay: RT-qPCR mRNA level of TP53 in DU-145 cells; format: cell-based, human; details: DU145 cells, 24 h; compound 4 at 1 µM, compound 11 at 6 µM; normalized to B2M, 2^−∆∆Ct vs vehicle (1.00); mean ± SEM
Description: as §3, §4

Row | Structure (SMILES) | IC50 [1] [µM] | IC50 [2] [µM] | IC50 [3] [µM] | IC50 [4] [µM] | MSI (mean selective index) [5] | −E^I½ (mV) [6] [mV] | half-wave potential [6] [mV] | Relative expression level (mRNA level) CDC25A (CDC25A) | Relative expression level (mRNA level) CCN2 (CCN2) | Relative expression level (mRNA level) GSR (GSR) | Relative expression level (mRNA level) HDAC4 (HDAC4) | Relative expression level (mRNA level) TNF (TNF) | Relative expression level (mRNA level) TP53 (TP53)
1 | COc1cc(C(=O)C2=C(Nc3ccccc3)C(=O)c3ccccc3C2=O)ccc1O [Compound 9, 2-(Phenylamino)-3-(4-hydroxy-3-methoxybenzoyl)naphthalene-1,4-dione] | 12.5 ± 0.55 | 5.81 ± 0.71 | 13.8 ± 1.87 | 47.7 ± 3.29 | 4.5 | 595 | – | – | – | – | – | – | –
2 | Cc1ccc(C(=O)C2=C(Nc3ccccc3)C(=O)c3ccccc3C2=O)cc1 [Compound 10, 2-(Phenylamino)-3-(4-methylbenzoyl)naphthalene-1,4-dione] | 11.1 ± 0.57 | 14.2 ± 0.53 | 21.5 ± 2.26 | 78.8 ± 5.53 | 5.0 | 770 | – | – | – | – | – | – | –
3 | O=C(C1=C(Nc2ccccc2)C(=O)c2ccccc2C1=O)c1ccco1 [Compound 11] | 5.45 ± 0.21 | 4.64 ± 0.23 | 11.7 ± 0.84 | > 100 | 13.7 | 578 | −578 | 0.90 ± 0.05 | 0.95 ± 0.09 | 0.94 ± 0.06 | 0.81 ± 0.07 | 0.93 ± 0.08 | 0.87 ± 0.05
4 | O=C(C1=C(Nc2ccccc2)C(=O)c2ccccc2C1=O)c1cccs1 [Compound 12] | 6.97 ± 0.6 | 4.2 ± 0.06 | 11.7 ± 0.89 | 24.8 ± 1.41 | 3.3 | 552 | −552 | – | – | – | – | – | –
5 | O=C(C1=C(Nc2ccccc2)C(=O)c2ccccc2C1=O)c1ccsc1 [Compound 13, 2-(Phenylamino)-3-(thiophene-3-carbonyl)naphthalene-1,4-dione] | 8.91 ± 0.82 | 6.37 ± 0.23 | 13.8 ± 0.58 | 20.4 ± 2.77 | 2.1 | 635 | −635 | – | – | – | – | – | –
6 | O=C(C1=C(Nc2ccccc2)C(=O)c2ccccc2C1=O)c1ccc[nH]1 [Compound 14, 2-(Phenylamino)-3-(1H-pyrrole-2-carbonyl)naphthalene-1,4-dione] | 14.5 ± 0.25 | 10.7 ± 0.35 | 21.7 ± 0.22 | 13.7 ± 1.36 | 0.9 | 685 | −685 | – | – | – | – | – | –
7 | COc1cccc2c1C(=O)c1c(O)c3c(c(O)c1C2=O)C[C@@](O)(C(=O)CO)C[C@@H]3O[C@H]1C[C@H](N)[C@H](O)[C@H](C)O1 [DOX, Doxorubicin, reference compound] | 0.93 ± 0.06 | 0.33 ± 0.05 | 0.46 ± 0.08 | 4.27 ± 0.34 | 7.5 | – | – | – | – | – | – | – | –
